# Assay results reported in US7754687B2, “Methods of inhibiting viral infection” (Mount Sinai School of Medicine, priority 2005, dated 2010).
# Like-named read-outs stand apart in the source and are kept apart here. No end group written: not given here.
# Tests used:
# HDAC = experiment: Effect of sodium butyrate on ProTα activity in macrophages carrying integrated HIV-1; assay type: cell-based; conditions: data not presented
# Excerpt: Moreover, both IkBα and ProTα can bind to HDAC and form intracellular complexes with DNA (51, 52). Therefore investigating the functions of these transcriptional factors and studying the competitive binding of HDAC to IkB and/or ProTα and chromatin immunoprecipitation studies may help to further reveal how ProTα inhibits HIV-1 transcription in primary macrophages.
# HIV-1VSV = assay type: cell-based
# HIV-1JRFL [1] = assay type: cell-based; conditions: primary macrophages
# HIV-1BaL = HIV-1BaL replication in primary macrophages, p24 antigen ELISA; assay type: cell-based
# HIV-1JRFL [2] = assay type: cell-based; conditions: HeLa CD4+/CCR5+ cells
# IkBα mRNA = IkBα mRNA by real time PCR in macrophages carrying integrated HIV; assay type: cell-based; conditions: data not presented
# Description: (§1) RNA was isolated from macrophages infected with HIVVSV for 72 hr and treated with medium alone or ProTα 24 hr post treatment using Absolutely RNA kit (Stratagene). Real time PCR was done at Mount Sinai Medical Center Core Facility using following primers: […]
# for IkB sense-[…] anisense-[…].
# (§2) Each assay was performed in triplicate. Quantification of each PCR product was expressed relative to -actin.
# type one and/or two IFNs = experiment: Induction of type one and/or two IFN mRNA in primary macrophages; conditions: 24 hr post treatment, data not presented
# HIV-1JRFL [3] = assay type: cell-based; conditions: Hos CD4+/CCR5+ cells; data not presented
# STAT2 = STAT2 phosphorylation in treated macrophages; conditions: supernatant 10% by volume, data not presented
# STAT1 [4] = experiment: STAT1 phosphorylation western blot, primary macrophages; assay type: cell-based; conditions: 15 min, ProTα 1 μg/mL or 10% conditioned medium
# Description: (§3) Whole cell extract from macrophages and Hela cells treated with 10% cell conditioned medium from CD8+ cells, ProTα or medium was prepared by adding 1×SDS Sample buffer (100 ul per 6 well plate). For western blot analyses, protein samples were treated with 2.5 M DTT or 2.5% 2-mercaptoethanol and separated by SDS-Page 4-20% Tris-Glycine gradient gels (Novex-Invitrogen Calif.). Following separation by SDS-Page, the gel was blotted onto PVDF membrane (Novex-Invitrogen San-Diego, Carlsbad, Calif.). After blocking with 5% nonfat milk the membrane was incubated with 1/1000 dilution of anti P-STAT-1 (Tyr701) (Cell Signaling Technology) for 24 hr at 4° C. in PBS. The membrane was washed in PBS with 0.05% Tween 20 and treated with 1/2000 diluted anti-rabbit antibodies labeled with horseradish […] (Amersham pharmacia UK). The membrane was washed in PBS with 0.05% tween 20 and Western blot chemiluminescence reagent was added.
# (§4) To establish whether ProTα also induces STAT1 activation in primary macrophages and HeLa-CD4 cells, such cells were briefly (15 min) incubated with ProTα protein at 1 μg/mL or 10% cell conditioned medium after incubation for 2 hr in serum free medium to reduce baseline phosphorylation. A western blot of the electrophoresed total lysate of treated and untreated cells was probed with an antibody specific for STAT1 phosphorylated at tyrosine 701 (FIG. 8).
# CMV promoter = experiment: Luciferase reporter under CMV promoter (VVCW/LBE) in macrophages; assay type: cell-based; conditions: 200 ng/ml at 48-72 hr post infection; 24 hr post treatment
# Excerpt: (§5) Inhibition of HIV-1 Gene Transcription by ProTα is not Selective for the HIV-1 LTR Promoter. To determine whether the effect of ProTα on HIV-1 gene transcription is specific for the LTR promoter, the present inventors used two other HIV derived lentiviral vectors carrying luciferase reporter genes under control of PGK (phosphoglycerate kinase-VVPW/LBE) or CMV (cytomegalovirus-VVCW/LBE) promoters (kindly provided by Dr. L. Gusella). Macrophages were infected with HIV-1VSV carrying the luciferase gene, under the control of LTR, PGK or CMV promoters. At 48-72 hr post infection when viral integration is completed, ProTα at 200 ng/ml was introduced.
# PGK promoter = experiment: Luciferase reporter under PGK promoter (VVPW/LBE) in macrophages; assay type: cell-based; conditions: 200 ng/ml at 48-72 hr post infection; 24 hr post treatment
# Excerpt: as §5
# IkBα protein = IkBα protein level in the nucleus of macrophages; assay type: cell-based; conditions: 1 hr post treatment, data not presented
# mC2,C3-Ba-L = experiment: Replication of LTR-mutated mC2,C3-Ba-L in primary macrophages, p24; assay type: cell-based, HIV-1; conditions: 200 ng/ml, p24 days 6-10, 3 donors
# [5] = system: dual tropic HIV-1 primary isolate; experiment: Replication of dual tropic HIV-1 primary isolate in primary macrophages, p24; assay type: cell-based; conditions: 200 ng/ml, p24 day 15
# STAT1 [6] = experiment: STAT1 phosphorylation western blot, HeLa-CD4 cells; assay type: cell-based; conditions: 15 min, ProTα 1 μg/mL or 10% conditioned medium
# Description: as §3, §4
# HIVVSV = assay type: cell-based, HIV-1; conditions: 200 ng/ml
# [7] = system: CCR5 tropic HIV-1 primary isolates; experiment: Replication of CCR5 HIV-1 primary isolate in primary macrophages, p24; assay type: cell-based; conditions: 200 ng/ml, p24 day 15
# [8] = system: HIV-1 lab isolates (HIV-1BaL and HIV-1IIIB) or HIV-1 primary isolates; experiment: HIV-1 replication in primary CD4+ cells (lab and primary isolates); assay type: cell-based; conditions: primary CD4+ cells; data not presented
# [9] = system: HIV-1 LTR controlled luciferase reporter gene mRNA; experiment: Real time RT-PCR of luciferase reporter gene mRNA in HIV-1VSV infected macrophages; assay type: cell-based; conditions: 200 ng/ml for 24 hr; 72 hr post infection; vs control medium
# Description: as §1
# for Luciferase reporter gene: sense-[…] antisense-[…].
# as §2
molecule,measurement,setting,value
CCCC(=O)[O-].[Na+] [sodium butyrate],reduction in ProTα activity,HDAC,70-80%
"Cc1cn([C@H]2C[C@H](N=[N+]=[N-])[C@@H](CO)O2)c(=O)[nH]c1=O [AZT, azidothymidine, reference compound]",effect on HIV-1 gene expression (luciferase),HIV-1VSV,no effect
"thymosin alpha 1 (Ac-SDAAVDTSSEITTKDLKEKKEVVEEAEN; UniProt P06454 2-29, looked up, fragment) [Tα1, chemically synthesized peptide homologous to the first 28 amino acids of ProTα, reference compound]",activity against the HIVJRFL expressing luciferase reporter gene,HIV-1JRFL [1]; up to 1 μg/mL,no activity
"O=C(O)C(=O)CC(=O)c1cccn1Cc1ccc(F)cc1 [L-731 988, reference compound]",effect on HIV-1 gene expression (luciferase),HIV-1VSV,no effect
same,suppression of virus replication by integrase inhibitor,"HIV-1BaL; added at 2 hr post infection, replication competent viruses",did not completely suppress virus replication
prothymosin alpha [ProTα],anti-HIV-1JRFL activity,HIV-1JRFL [2],"did not, however, exhibit anti-HIV-1JRFL activity"
same,inhibition of the luciferase reporter gene of HIV-1JRFL,HIV-1JRFL [1]; dose response,dose dependent inhibition
same,concentration at which anti-HIV-1 activity was exhibited (as low as),HIV-1JRFL [1]; luciferase 72 hr post infection,20 ng/mL
same,induction of IkBα mRNA,IkBα mRNA,10 fold
same,induction of type one and/or two IFN mRNA,type one and/or two IFNs,no induction
same,effect on HIV-1 gene expression (luciferase),HIV-1VSV,inhibit HIV-1 gene expression
same,expression of luciferase reporter gene from LTR promoter,HIV-1VSV,inhibited expression
same,reduction of HIV-1 gene expression,HIV-1VSV,80%
same,anti-HIV-1JRFL activity,HIV-1JRFL [3],"did not, however, exhibit anti-HIV-1JRFL activity"
same,STAT 2 phosphorylation,STAT2,did not induce STAT 2 phosphorylation
same,phosphorylation state of STAT1 (Tyr701),STAT1 [4],no effect
same,expression of luciferase reporter gene from CMV promoter,CMV promoter,inhibited expression
same,expression of luciferase reporter gene from PGK promoter,PGK promoter,inhibited expression
same,level of IkBα protein in the nucleus,IkBα protein,increased substantially
same,suppression of mutated (LTR) virus replication,"mC2,C3-Ba-L",60-80%
same,replication of dual tropic HIV-1 primary isolate,[5],inhibited replication
same,phosphorylation state of STAT1 (Tyr701),STAT1 [6],no effect
same,reduction of expression of the reporter gene luciferase,HIVVSV; DCs treated 2 hr post infection,90%
same,inhibition of integrated proviral HIV-1,HIVVSV; DCs treated 72 hr post infection,65-75%
same,reduction of viral p24 antigen,"HIV-1BaL; 2 ng/mL rProTα, primary macrophages",greater than 80%
same,inhibition of wild type (LTR) virus,"HIV-1BaL; primary macrophages, 200 ng/ml, p24 days 6-10, 3 donors",90-95%
same,suppression of HIV-1BaL replication as measured by HIV-1 p24 antigen,"HIV-1BaL; primary macrophages, dose response",dosage dependent suppression
same,replication of CCR5 HIV-1 primary isolate,[7],inhibited replication
same,suppression of replication,[8],varying from 30-40% suppression to no suppression
same,suppression of LTR controlled luciferase reporter gene mRNA levels,[9],80%
